Measured values taken from patent US12103952B2, “Methods for expressing proteins in axons” (Cornell University, priority 2010, dated 2024).
Non-standard residues stand in square brackets, D forms with d. Residues, ends and D or L forms follow the SMILES beside them. Nle = CCCC[C@H](N)C(=O)O

What was measured:
Assay type in all cases: cell-based, rat
CREB = CREB levels in severed axons by immunofluorescence; conditions: severed axons, inhibitor present during NGF removal
Description: FIGS. 7A-B are results showing the axonal translation and retrograde transport of endogenous CREB. (A) CREB levels in severed axons of E15 DRGs were assayed by immunofluorescence with a CREB-specific antibody. CREB was depleted on removal of NGF, with near complete loss of fluorescence signals by 3 hours. […] The error bars represent s.e.m. (n=40). (B) CREB is depleted from axon terminals in a microtubule-dependent manner. CREB levels in severed axons were monitored, as in A, after removal and restoration of NGF, in the presence of LLnL or colchicine. Colchicine, but not LLnL, blocked the reduction in CREB levels following removal of NGF. The error bars represent s.e.m. (n=40).
E15 rat or E13 mouse embryonic dorsal root ganglion (DRG) explants were plated on glass-bottom culture dishes (MatTek) or glass coverslips pre-coated with 33 μg/ml poly-D-lysine and 1 μg/ml laminin. CREB^α/Δ−/+ animals used to generate CREB^α/Δ−/− embryos were from Jackson Labs. E15 dissociated DRG neurons were prepared as described by Wu et al., Nature 436, 1020-1024 (2005). DRGs were cultured in B27/Neurobasal medium (Invitrogen) supplemented with 100 ng/ml nerve growth factor (NGF) and […] 5′-fluorodeoxyuridine (5-FdU) for 3 days. siRNA-mediated knockdown in DRG neurons has been described previously by Higuchi et al., Biochemical & Biophysical Research Communications 301, 804-809 (2003) and was performed using siRNAs listed in Table S3. For measurements of CREB levels in isolated axons, axons were severed from cell bodies by removing the explant with a flame-sharpened Pasteur pipette (Wu et al., Nature 436, 1020-1024 (2005)). Modified Boyden chambers were based on the procedure of Twiss (Zheng et al., Journal of Neuroscience 21, 9291-9303 (2001)) and modified to obtain distal axons as described by Wu et al., Nature 436, 1020-1024 (2005). mRNA from harvested axons (Wu et al., Nature 436, 1020-1024 (2005)) was used to prepare a cDNA library using a modified, unbiased single cell protocol as described below. See also Tietjen et al., Neuron 38, 161-175 (2003). Compartmented (Campenot) cultures were prepared as described below. See also Campenot, Proc Natl Acad Sci USA 74, 4516-4519 (1977)).
Images and measurements of signals in axons were taken from the terminal 50 μm of the axon, except where indicated. Analyzed axons were a minimum of 2000 μm for all experiments. DRGs were fixed with 4% PFA in CBS overnight at 4° C., permeabilized with 0.5% Triton X-100/TBS, and blocked in 4% BSA/TBS for 1 hour. DRGs were labeled with antibodies (Table S4) in 2% BSA/0.1% Triton X-100/TBS overnight at 4° C. For image acquisition details, see below.
The axonal localization of CREB was also examined by immunofluorescence. Axons were severed from cultured DRG explants to rule out potential contributions from anterograde transport of cell body-derived CREB. […] Although the majority of CREB protein localized to the nucleus, with substantially lower levels in axons (FIG. 4D), the immunofluorescence signal in axons was specific. Similar immunofluorescence staining was seen using a different CREB-specific antibody that recognized a non-overlapping epitope.
The importin proteins, which bind nuclear-localization sequences (NLS) (Goldfarb et al., Trends in Cell Biology 14, 505-514 (2004)), are present in axons and mediate the retrograde trafficking of axonally-injected fluorescently-labeled NLS peptides (Hanz et al., Neuron 40, 1095-1104 (2003)). Since CREB contains a NLS that mediates its nuclear localization (Waeber & Habener, Mol Endocrinol 5, 1418-1430 (1991)), axonal CREB may be retrogradely transported to the cell body. To determine if endogenously-expressed CREB is retrogradely trafficked, we examined the time course of CREB reduction in axons upon replacement of media with NGF-free media. […]

[1] = system: CREB reporter mRNA translation in DRG axons; assay: myr-dEGFP3′CREB Sindbis translation reporter in axons; conditions: 40 μM LLnL, within 5 min, myr-dEGFP3′CREB-infected axons
From the text: FIGS. 5A-C are results showing NGF-dependent translation of a CREB reporter mRNA in axons. (A) Schematic diagram of the Sindbis viral reporter construct used to monitor CREB translation. The reporter contains a myristoylated, destabilized EGFP (myr-dEGFP) with the 3′UTR of CREB, expressed under control of the Sindbis subgenomic promoter (PSG). (B) E15 DRG explant cultures were infected with Sindbis constructs expressing myr-dEGFP3′CREB on DIV3 and fluorescence (bottom panel) and phase (top panel) images, approximately 1000 μm from the cell body were collected after 24 hours. Fluorescence images are shown in inverted contrast in order to more readily visualize puncta. Scale bar, 25 μm. […] EGFP fluorescence co-localizes with a population of S6-labeled ribosomal clusters. […]
FIGS. 6A-H are data showing that axonal CREB is specifically translated in response to NGF. […] (B) E15 DRG explant cultures were infected with Sindbis constructs expressing myr-dEGFP3′RhoA or myr-dEGFP3′H1f0 on DIV3 and fluorescence images were collected after 24 h. […] (D) Axons from DIV3 DRGs were analyzed for CREB and mitochondrial localizations by immunofluorescence using CREB-specific and VDAC/porin1-specific antibodies. […] CREB mRNA was detected by FISH using a CREB specific riboprobe. […] (H) Axons of DIV3 DRG explant cultures were analyzed by immunofluorescence for NGF effectors CREB, pTrkA and pErk5 at 3 DIV. […]

E15 DRG explant cultures = assay: Retrograde transport of photoactivatable Dendra-CREB reporter; conditions: in presence of inhibitor
Description: FIGS. 8A-D are results showing the retrograde transport of a photoactivatable fluorescent CREB reporter protein. (A) E15 DRG explant cultures were infected with Sindbis constructs expressing Dendra or Dendra-CREB transcripts. Dendra and Dendra-CREB were visualized as green fluorescence (top panel), and growth cone-localized Dendra[-CREB] was photoactivated to its red form by 50 ms illumination of the boxed regions with a 408 nm laser. Movement of photoactivated Dendra signals was analyzed within the axon determined by green Dendra fluorescence mask. […] Photoactivated Dendra[-CREB] images are shown inverted in order to more readily visualize signals. Scale bar, 10 μm. (B) Quantification of data in (A). […] The expected diffusion rate of Dendra-CREB was calculated at various elapsed time points, using a previously measured diffusion coefficient (D) in neurons (Bloodgood & Sabatini, Science 310, 866-869 (2005)), in the formula x^2=(2Dt), where x is the average displacement. […] (C) Dendra or Dendra-CREB was photoactivated by 1 s illumination of a 40 μm axon segment approximately 1 mm from its respective cell body and levels of photoactivated Dendra fluorescence were analyzed in the respective cell nucleus. […] (D) Quantification of data in (C). n=10 cells per data point. *p=0.0012. […]

SMILES: CCCC[C@@H](C=O)NC(=O)[C@H](CC(C)C)NC(=O)[C@H](CC(C)C)NC(C)=O [LLnL] (Ac-Leu-Leu-[Nle]-aldehyde)
- reduction of CREB levels upon removal of NGF (CREB): unaffected
- eGFP fluorescence signal [1]: increased twofold

SMILES: COc1cc2c(c(OC)c1OC)-c1ccc(OC)c(=O)cc1[C@@H](NC(C)=O)CC2 [colchicine]
- retrograde transport of Dendra-CREB (E15 DRG explant cultures): significantly blocked
- reduction of CREB levels upon removal of NGF (CREB): abolished the reduction in CREB levels

SMILES: C=C(CC)C(=O)c1ccc(OCC(=O)O)c(Cl)c1Cl [ethacrynic acid]
- retrograde transport of Dendra-CREB (E15 DRG explant cultures): significantly blocked
